The values that follow are results of earlier work, collected in US20170326180A1, “Demineralized Bone Matrix Material having Allogenic Sphingosine-1-Phosphate” (DePuy Synthes Products, Inc., priority 2016, published 2017).

This data set relates to mesenchymal stem cells. To be noted: solution having 0.1 and 1 uM C1P; reported by Kim.

Consider ceramide-1-phosphate [C1P], for which the “chemotactic activity for mesenchymal stem cells” value is on record as “chemotactic activity”.
